Measurements taken from patent US8748471B2, “2-alkyl-cycloalk(en)yl-carboxamides” (priority 2004, dated 2014).
Like-named read-outs stand apart in the source and are kept apart here.

How the values were obtained:
[1] = log P determination by HPLC on reverse-phase column (C 18), acidic range pH 2.3 (EEC Directive 79/831 Annex V. A8); type: physicochemical; settings: for chromatographic logP: reverse-phase HPLC column (C 18)
Method: The stated log P values were determined in accordance with EEC Directive 79/831 Annex V. A8 by HPLC (High Performance Liquid Chromatography) on a reverse-phase column (C 18). Temperature: 43° C. Mobile phases for the determination in the acidic range (pH 2.3): 0.1% aqueous phosphoric acid, acetonitrile; linear gradient from 10% acetonitrile to 90% acetonitrile. Calibration was carried out using unbranched alkan-2-ones (having 3 to 16 carbon atoms) with known log P values (determination of the log P values by the retention times using linear interpolation between two successive alkanones).

[2] = test system: Podosphaera leucotricha; assay: Podosphaera test (apple)/protective; type: in vivo; settings: protective, application rate 100 g/ha, evaluation 10 days after inoculation, 0% = control, 100% = no infection
Method: (§1) To produce a suitable preparation of active compound, 1 part by weight of active compound is mixed with the stated amounts of solvents and emulsifier, and the concentrate is diluted with water to the desired concentration.
To test for protective activity, young plants are sprayed with the preparation of active compound at the stated application rate. After the spray coating has dried on, the plants are inoculated with an aqueous spore suspension of Podosphaera leucotricha. The plants are then placed in a greenhouse at about 23° C. and a relative atmospheric humidity of about 70%.
(§2) Evaluation is carried out 10 days after the inoculation. 0% means an efficacy which corresponds to that of the control, whereas an efficacy of 100% means that no infection is observed.

[3] = test system: Venturia inaequalis; assay: Venturia test (apple)/protective; type: in vivo; settings: protective, application rate 100 g/ha, evaluation 10 days after inoculation, 0% = control, 100% = no infection
Method: as §1
To test for protective activity, young plants are sprayed with the preparation of active compound at the stated application rate. After the spray coating has dried on, the plants ate inoculated with an aqueous conidia suspension of the apple scab pathogen Venturia inaequalis and then remain in an incubation cabinet as about 20° C. and 100% relative atmospheric humidity for 1 day. The plants are then placed in a greenhouse at about 21° C. and a relative atmospheric humidity of about 90%.
as §2

[4] = test system: Puccinia recondita; assay: Puccinia test (wheat)/protective; type: in vivo; settings: 240 h, protective, application rate 500 g/ha, evaluation 10 days after inoculation, 0% = control, 100% = no infection, read-out: Efficacy in %
Method: (§3) To produce a suitable preparation of active compound, 1 part by weight of active compound is mixed with the stated amounts of solvent and emulsifier, and the concentrate is diluted with water to the desired concentration.
To test for protective activity, young plants are sprayed with the preparation of active compound at the stated application rate. After the spray coating has dried on, the plants are sprayed with a conidia suspension of Puccinia recondita. The plants remain in an incubation cabinet at 20° C. and 100% relative atmospheric humidity for 48 hours. The plants are then placed in a greenhouse at a temperature of about 20° C. and a relative atmospheric humidity of 80%.
as §2

[5] = test system: Botrytis cinerea; assay: Botrytis test (bean)/protective; type: in vivo; settings: protective, application rate 500 g/ha, evaluation 2 days after inoculation (size of infected areas), 0% = control, 100% = no infection
Method: as §1
To test for protective activity, young plants are sprayed with the preparation of active compound at the stated application rate. After the spray coating has dried on 2 small pieces of agar colonized by Botrytis cinerea are placed onto each leaf. The inoculated plants are placed in a dark chamber at about 20° C. and 100% relative atmospheric humidity.
2 days after the inoculation, the size of the infected areas on the leaves is evaluated. 0% means an efficacy which corresponds to that of the control, whereas an efficacy of 100% means that no infection is observed.

[6] = test system: Alternaria solani; assay: Alternaria test (tomato)/protective; type: in vivo; settings: protective, application rate 750 g/ha, evaluation 7 days after inoculation, 0% = control, 100% = no infection
Method: as §3
To test for protective activity, young tomato plants are sprayed with the preparation of active compound at the stated application rate. 1 day after the treatment, the plants are inoculated with a spore suspension of Alternaria solani and then remain at 100% relative atmospheric humidity and 20° C. for 24 h. The plants then remain at 96% relative atmospheric humidity and a temperature of 20° C.
Evaluation is carried out 7 days after the inoculation. 0% means an efficacy which corresponds to that of the control, whereas an efficacy of 100% means that no infection is observed.

[7] = pH 2.3, Table 1 (I-c), pH 2.3, HPLC C18, 43° C., main diastereomer or, where several values in a cell, the individual diastereomers, read-out: logP
[8] = Table 1 (I-c), pH 2.3, HPLC C18, 43° C., main diastereomer or, where several values in a cell, the individual diastereomers
[9] = Table 3 (I-k), pH 2.3, HPLC C18, 43° C., main diastereomer or the individual diastereomers

chromatographic logP [1, 7]	logP [1, 8]	Structure (SMILES)	pest or weed control at 500 g/ha [4] [%]	other results
4.15	–	Cc1nn(C)c(F)c1C(=O)NC1CCCCC1C(C)CC(C)C (centres unmarked) [I-c-1]	100	Efficacy in % [2]: 88%; Efficacy in % [3]: 100%
4.66	4.71	Cc1nc(C(F)(F)F)c(C(=O)NC2CCCCC2C(C)CC(C)C)s1 (centres unmarked) [I-c-3]	100	–
4.45	4.53	Cc1nc(C(F)F)c(C(=O)NC2CCCCC2C(C)CC(C)C)s1 (centres unmarked) [I-c-4, 4-(difluoromethyl)-N-[2-(1,3-dimethylbutyl)cyclohexyl]-2-methyl-1,3-thiazole-5-carboxamide]	100	log P (pH 2.3) ([1]; Example 1, pH 2.3, two values = mixture of diastereomers): 4.53; chromatographic logP ([1]; pH 2.3, text of Example 1, pH 2.3, two values = mixture of diastereomers, read-out: log P (pH 2.3)): 4.45; Efficacy in % [2]: 100%; Efficacy in % [3]: 98%; Efficacy in % [5]: 95%; Efficacy in % [6]: 100%
4.12	4.23	CC(C)CC(C)C1CCCCC1NC(=O)c1nccnc1Cl (centres unmarked) [I-c-5]	100	Efficacy in % [2]: 100%; Efficacy in % [3]: 100%; Efficacy in % [5]: 99%; Efficacy in % [6]: 100%
3.88	4.28	CC(C)CC(C)C1CCCCC1NC(=O)c1cn(C)nc1C(F)F (centres unmarked) [I-c-7]	100	Efficacy in % [2]: 100%; Efficacy in % [3]: 100%; Efficacy in % [5]: 94%; Efficacy in % [6]: 100%
4.73	5.15	Cc1ccsc1C(=O)NC1CCCCC1C(C)CC(C)C (centres unmarked) [I-c-9]	100	–
4.52	4.83	CC1=C(C(=O)NC2CCCCC2C(C)CC(C)C)SCCO1 (centres unmarked) [I-c-10]	100	Efficacy in % [6]: 100%
4.45	4.83	CC(C)CC(C)C1CCCCC1NC(=O)c1cn(C)cc1C(F)(F)F (centres unmarked) [I-c-11]	–	Efficacy in % [3]: 90%; Efficacy in % [5]: 96%
4.27	4.58	Cc1occc1C(=O)NC1CCCCC1C(C)CC(C)C (centres unmarked) [I-c-12]	100	–
3.18	3.47	Cc1nn(C)cc1C(=O)NC1CCCCC1C(C)CC(C)C (centres unmarked) [I-c-14]	100	Efficacy in % [6]: 100%
–	5.03	CC(C)CC(C)C1CCCCC1NC(=O)c1sccc1C(F)(F)F (centres unmarked) [I-c-96]	–	–
–	4.92	CC(C)CC(C)C1CCCCC1NC(=O)c1ccsc1C(F)(F)F (centres unmarked) [I-c-98]	–	–

The remaining lines, values behind:

Structure (SMILES)	chromatographic logP [1, 7]	logP [1, 8]	pest or weed control at 500 g/ha [4] [%]	other results
CC(C)CC(C)C1CCCCC1NC(=O)c1cn(C)nc1C(F)(F)F (centres unmarked) [I-c-6]	4.1	4.53	100	Efficacy in % [3]: 99%; Efficacy in % [5]: 90%
CC(C)CCCC1CCCCC1NC(=O)c1cn(C)nc1C(F)F (centres unmarked) [I-c-83]	–	4.40	–	–
Cc1nn(C)c(F)c1C(=O)NC1CCCCC1CCCC(C)C (centres unmarked) [I-c-84]	–	4.30	–	–
CC(C)CCCC1CCCCC1NC(=O)c1cn(C)cc1C(F)(F)F (centres unmarked) [I-c-86]	–	5.05	–	–
CC(C)(C)CCC1CCCCC1NC(=O)c1sccc1C(F)(F)F (centres unmarked) [I-c-95]	–	5.03	–	–
CC(C)(C)CCC1CCCCC1NC(=O)c1ccsc1C(F)(F)F (centres unmarked) [I-c-97]	–	4.87	–	–
CC(CC(C)(C)C)C1CCCCC1NC(=O)c1sccc1C(F)(F)F (centres unmarked) [I-c-99]	–	5.29	–	–
Cc1nn(C)c(F)c1C(=O)NC1CCCCC1CC[Si](C)(C)C (centres unmarked) [I-k-1]	–	–	–	logP [1, 9]: 4.15
Cc1nn(C)c(F)c1C(=O)NC1CCCCC1C(C)C[Si](C)(C)C (centres unmarked) [I-k-2]	–	–	–	logP [1, 9]: 4.51
C[Si](C)(C)CCC1CCCCC1NC(=O)c1ccsc1I (centres unmarked) [I-k-3]	–	–	–	logP ([1]; pH 2.3): 5.13
CC(C[Si](C)(C)C)C1CCCCC1NC(=O)c1ccsc1I (centres unmarked) [I-k-4]	–	–	–	logP ([1]; pH 2.3): 5.44
